Results as given in patent US10053453B2, “Compounds and their use as BACE inhibitors” (AstraZeneca AB, priority 2014, dated 2018).
Read-outs that look alike come from different tables or passages of the source.

Experiments:
Human BACE2 = target: T1, Human BACE2 (Homo sapiens, UniProt Q9Y5Z0); test: TR-FRET assay; type: biochemical; conditions: substrate 100 nM, pH4.5
T1 construct: the soluble part of the human β-Secretase2 (AA1-AA473) was cloned using BACE2(1-473)-(AVT)-Fc-pDEST12.2 mammalian expression vector; AVT linker (C); made in house
T1 sequence (Q9Y5Z0 21-473): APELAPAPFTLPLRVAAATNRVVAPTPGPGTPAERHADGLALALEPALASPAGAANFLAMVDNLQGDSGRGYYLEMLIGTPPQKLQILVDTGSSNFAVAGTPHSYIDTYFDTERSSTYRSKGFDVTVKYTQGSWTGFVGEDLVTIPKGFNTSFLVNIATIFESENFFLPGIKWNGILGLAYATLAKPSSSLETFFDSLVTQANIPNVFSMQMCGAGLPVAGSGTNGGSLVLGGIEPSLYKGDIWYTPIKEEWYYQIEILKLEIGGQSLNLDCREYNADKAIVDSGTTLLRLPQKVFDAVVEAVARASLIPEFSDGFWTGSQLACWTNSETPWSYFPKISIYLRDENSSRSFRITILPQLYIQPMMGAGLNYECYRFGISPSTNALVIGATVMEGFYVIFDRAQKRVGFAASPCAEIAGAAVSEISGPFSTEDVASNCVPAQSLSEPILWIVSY
Experimental: (§1) The β-secretase enzyme used in the TR-FRET was prepared as follows:
(§2) Human BACE1: the cDNA for the soluble part of the human β-Secretase1 (AA1-AA460) was cloned using the BACE1(1-460)-(AVT)-Fc-pGEN-IRES-neo mammalian expression vector. The gene was fused to the Fe domain of IgG1 (affinity tag) and stably cloned into HEK 293 cells. […]
(§3) A multidrop Combi was used for the liquid handling. Enzyme (7 μL) was added to the compound plate (containing 0.8 μL of compound in dimethylsulphoxide). The plate was incubated for 10 minutes. Substrate (8 μL) was then added, and the reaction proceeded for 17 minutes at r.t. The reaction was stopped with the addition of Stop solution (5.5 μL, NaOAC, pH 9). Fluorescence was measured on a Pherastar plate reader using HTRF module. […] 5 reference inhibitors with different affinities were used at all screen occasions in dose response.

Human BACE1 = target: T2, Human BACE1 (Homo sapiens, UniProt P56817); test: Diluted TR-FRET assay; type: biochemical; conditions: 50 times less enzyme, 6.5 h reaction time at r.t.; read-out: IC50 BACE1 (dil. TR-FRET)
T2 construct: the soluble part of the human β-Secretase1 (AA1-AA460) was cloned using the BACE1(1-460)-(AVT)-Fc-pGEN-IRES-neo mammalian expression vector; AVT linker (C); made in house
T2 sequence (P56817 22-460): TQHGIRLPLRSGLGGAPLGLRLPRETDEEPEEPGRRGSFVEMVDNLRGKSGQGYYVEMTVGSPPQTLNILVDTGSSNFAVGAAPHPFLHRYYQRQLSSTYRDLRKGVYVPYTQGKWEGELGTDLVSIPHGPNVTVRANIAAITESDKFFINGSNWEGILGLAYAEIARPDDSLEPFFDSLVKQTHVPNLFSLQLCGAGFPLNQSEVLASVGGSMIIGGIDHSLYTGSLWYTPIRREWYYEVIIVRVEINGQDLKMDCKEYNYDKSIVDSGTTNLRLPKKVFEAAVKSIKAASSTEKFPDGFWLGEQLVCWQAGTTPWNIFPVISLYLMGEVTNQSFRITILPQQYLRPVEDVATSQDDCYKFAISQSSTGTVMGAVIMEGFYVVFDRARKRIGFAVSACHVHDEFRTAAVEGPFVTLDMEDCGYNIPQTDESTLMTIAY
Experimental: as §1, §2
as §3, with “Substrate (8 μL) was then added, and the reaction proceeded for 17 minutes at r.t.” left out

SH-SY5Y cells = test: sAPPβ release assay
[1] = Homo sapiens, SH-SY5Y, read-out: IC50 Cell (sAPPβ release, nM), SH-SY5Y cells, compounds incubated 16-17 h

IC50 (Human BACE2; enzyme 2.7 μg/mL) [nM]	IC50 (Human BACE1) [nM]	IC50 (SH-SY5Y cells; [1]) [nM]	IC50 (Human BACE2; enzyme […]) [nM]	IC50 (SH-SY5Y cells; read-out: IC50 Cell (sAPPβ release), SH-SY5Y cells, compounds incubated 16-17 h) [nM]	Compound
22.7	11.7	0.45	–	–	[2H]C1([2H])OC(N)=N[C@]12c1cc(-c3cncc(Cl)c3)ccc1C[C@]21CC[C@@H](OC)[C@H](C)C1 [Compound 7, (1R,1′R,3R,4R)-6′-(5-chloropyridin-3-yl)-4-methoxy-3-methyl-3′H,5″H-dispiro[cyclohexane-1,2′-indene-1′,4″-oxazol]-5″,5″-d2-2″-amine]
716	54.7	0.76	–	–	[2H]C1([2H])OC(N)=N[C@]12c1cc(-c3cccnc3)ccc1C[C@@]21CC[C@H](OC)[C@@H](C)C1 [Compound 8, (1S,1′R,3S,4S)-4-methoxy-3-methyl-6′-(pyridin-3-yl)-3′H,5″H-dispiro[cyclohexane-1,2′-indene-1′,4″-oxazol]-5″,5″-d2-2″-amine]
128	135	5.9	–	–	CO[C@H]1CC[C@]2(CC1)Cc1ccc(C#CC(C)C)cc1C21COC(N)=N1 (stereo partly drawn) [Compound 12, (1r,4r)-4-methoxy-6′-(3-methylbut-1-yn-1-yl)-3′H,5″H-dispiro[cyclohexane-1,2′-indene-1′,4″-oxazol]-2″-amine]
217	161	1.7	–	–	[2H]C1([2H])OC(N)=N[C@]12c1cc(-c3cccnc3)ccc1C[C@]21CC[C@@H](OC)[C@H](C)C1 [Compound 13, (1R,1′R,3R,4R)-4-methoxy-3-methyl-6′-(pyridin-3-yl)-3′H,5″H-dispiro[cyclohexane-1,2′-indene-1′,4″-oxazol]-5″,5″-d2-2″-amine]
23	16	1.1	–	–	CC#Cc1cncc(-c2ccc3c(c2)C2(COC(N)=N2)[C@]2(CC[C@H](OC)CC2)C3)c1 (stereo partly drawn) [Compound 15, (1r,4r)-4-methoxy-6′-(5-(prop-1-yn-1-yl)pyridin-3-yl)-3′H,5″H-dispiro[cyclohexane-1,2′-indene-1′,4″-oxazol]-2″-amine]
105	128	3.8	–	–	[2H]C1([2H])OC(N)=NC12c1cc(-c3cncc(Cl)c3)ccc1C[C@]21CC[C@@H](OC)CC1 (stereo partly drawn) [Compound 16, (1r,4r)-6′-(5-chloropyridin-3-yl)-4-methoxy-3′H,5″H-dispiro[cyclohexane-1,2′-indene-1′,4″-oxazol]-5″,5″-d2-2″-amine]
30.2	46.7	2.1	–	–	[2H]C1([2H])OC(N)=N[C@]12c1cc(-c3cc(F)cc(C#N)c3)ccc1C[C@]21CC[C@@H](OC)[C@H](C)C1 [Compound 17, 3-((1R,1′R,3R,4R)-2″-amino-4-methoxy-3-methyl-3′H,5″H-dispiro[cyclohexane-1,2′-indene-1′,4″-oxazol]-6′-yl-5″,5″-d2)-5-fluorobenzonitrile]
43.6	244	2	–	–	[2H]C1([2H])OC(N)=N[C@]12c1cc(-c3cc(F)cc(C#N)c3)ccc1C[C@@]21CC[C@H](OC)[C@@H](C)C1 [Compound 19, 3-((1S,1′R,3S,4S)-2″-amino-4-methoxy-3-methyl-3′H,5″H-dispiro[cyclohexane-1,2′-indene-1′,4″-oxazol]-6′-yl-5″,5″-d2)-5-fluorobenzonitrile]
186	143	2.9	–	–	[2H]C1([2H])OC(N)=N[C@]12c1cc(-c3cncc(C)c3)ccc1C[C@]21CC[C@@H](OC)[C@H](C)C1 [Compound 20, (1R,1′R,3R,4R)-4-methoxy-3-methyl-6′-(5-methylpyridin-3-yl)-3′H,5″H-dispiro[cyclohexane-1,2′-indene-1′,4″-oxazol]-5″,5″-d2-2″-amine]
256	67	1.6	–	–	[2H]C1([2H])OC(N)=NC12c1cc(-c3cncc(C)c3)ccc1C[C@@]21CC[C@H](OC)[C@@H](C)C1 (stereo partly drawn) [Compound 21, (1S,3S,4S)-4-methoxy-3-methyl-6′-(5-methylpyridin-3-yl)-3′H,5″H-dispiro[cyclohexane-1,2′-indene-1′,4″-oxazol]-5″,5″-d2-2″-amine]
21.4	7.3	1.5	–	–	[2H]C1([2H])OC(N)=N[C@]12c1cc(-c3cc(C#N)cc(OC)c3)ccc1C[C@@]21CC[C@H](OC)[C@@H](C)C1 [Compound 23, 3-((1S,1′R,3S,4S)-2″-amino-4-methoxy-3-methyl-3′H,5″H-dispiro[cyclohexane-1,2′-indene-1′,4″-oxazol]-6′-yl-5″,5″-d2)-5-methoxybenzonitrile]
18	18	3.2	–	–	[2H]C1([2H])OC(N)=N[C@]12c1cc(-c3cc(C#N)cc(OC)c3)ccc1C[C@]21CC[C@@H](OC)[C@H](C)C1 [Compound 24, 3-((1R,1′R,3R,4R)-2″-amino-4-methoxy-3-methyl-3′H,5″H-dispiro[cyclohexane-1,2′-indene-1′,4″-oxazol]-6′-yl-5″,5″-d2)-5-methoxybenzonitrile]
78.4	19.6	2.6	–	–	[2H]C1([2H])OC(N)=N[C@]12c1cc(-c3cncc(C(F)(F)F)c3)ccc1C[C@@]21CC[C@H](OC)[C@@H](C)C1 [Compound 26]
24.7	12	2.8	–	–	[2H]C1([2H])OC(N)=N[C@]12c1cc(-c3cccc(Cl)c3)ccc1C[C@@]21CC[C@H](OC)[C@@H](C)C1 [Compound 27]
255	67	1.6	–	–	[2H]C1([2H])OC(N)=N[C@]12c1cc(-c3cncc(C)c3)ccc1C[C@@]21CC[C@H](OC)[C@@H](C)C1 [Compound 28]
79.2	55.7	2.6	–	–	[2H]C1([2H])OC(N)=N[C@]12c1cc(-c3cncc(C(F)(F)F)c3)ccc1C[C@]21CC[C@@H](OC)[C@H](C)C1 [Compound 29, (1R,1′R,3R,4R)-4-methoxy-3-methyl-6′-(5-(trifluoromethyl)pyridin-3-yl)-3′H,5″H-dispiro[cyclohexane-1,2′-indene-1′,4″-oxazol]-5″,5″-d2-2″-amine]
90.8	24.3	2.4	–	–	CO[C@H]1[C@H](C)C[C@@]2(Cc3ccc(-c4cncc(C#N)c4)cc3[C@@]23COC(N)=N3)C[C@@H]1C [Compound 31, 5-((1r,3R,4r,5S)-2″-amino-4-methoxy-3,5-dimethyl-3′H,5″H-dispiro[cyclohexane-1,2′-indene-1′,4″-oxazol]-6′-yl)nicotinonitrile]
26.2	7.3	2.8	–	–	[2H]C1([2H])OC(N)=NC12c1cc(-c3cc(C#N)cc(OC)c3)ccc1C[C@@]21C[C@@H](C)[C@H](OC)[C@@H](C)C1 (stereo partly drawn) [Compound 32, 3-((1r,3R,4r,5S)-2″-amino-4-methoxy-3,5-dimethyl-3′H,5″H-dispiro[cyclohexane-1,2′-indene-1′,4″-oxazol]-6′-yl-5″,5″-d2)-5-methoxybenzonitrile]
–	11.7	–	22.7	0.5	[2H]C1([2H])OC(N)=N[C@]12c1cc(-c3cncc(Cl)c3)ccc1C[C@]21CC[C@@H](OC)[C@H](C)C1 [Compound 34, (1R,1′R,3R,4R)-6′-(5-chloropyridin-3-yl)-4-methoxy-3-methyl-3′H,5″H-dispiro[cyclohexane-1,2′-indene-1′,4″-oxazol]-5″,5″-d2-2″-amine]
